# Test results as given in US20150259371A1, “METHODS AND COMPOUNDS FOR INHIBITING GLYCOSYLTRANSFERASES” (SIMON FRASER UNIVERSITY, priority 2010, published 2015).
# Legend:
# [1] = system: O-GlcNAc on nup62; assay: O-GlcNAc on nup62 immunoprecipitated from treated cells, chemoenzymatic labelling; assay type: cell-based; details: 250 μM, 24 h; streptavidin probe
# Experimental: Immunoprecipitation of nup62: nup62 was immunoprecipitated from COS-7 cell lysates using the procedure described in Ref.^9. Following washing of the beads, and prior to elution, nup62 was incubated in the absence or presence of BtGH84 (overexpressed and purified as described previously^43) shaking for 2 h at room temperature, which would allow O-GlcNAc levels on nup62 to be assessed. nup62 was subsequently eluted from the beads upon addition of SDS loading buffer and boiled for 10 min.
# Click-iT® kit for labelling O-GlcNAc residues: The ‘Click-iT® O-GlcNAc Enzymatic Labeling System’ was purchased from Invitrogen, and essentially the manufacturer's protocol was followed with some alterations. nup62 was immunoprecipitated and eluted from the beads in 1% SDS in 20 mM Hepes, pH 7.9, and boiled for 10 min; this was used as the substrate for the chemoenzymatic labeling using UDP-GalNAz and GalTl. Following the overnight reaction, biotinylated phosphine (in 20% DMF) was added at a final concentration of 50 μM and incubated at 37° C. for […]. The reaction was stopped by the addition of SDS-PAGE loading buffer, and the samples were boiled for 10 min. Samples were run on a gel and transferred. The same procedure as described for the western blots was used, starting from the second blocking step. Blots were then probed with HRP-conjugated streptavidin (Pierce). […]
# [2] = system: O-GlcNAc levels in mice tissues; assay: O-GlcNAc levels in mouse tissues after intraperitoneal dosing; assay type: in vivo; details: 300 mg/kg intraperitoneally, 16 hours
# Experimental: Ac-5SGlcNAc 9 and the deprotected analogue with the hexyl substituent at the C2 position 28 have been analyzed for effectiveness at decreasing O-GlcNAc levels in mice. Pilot studies were conducted with mice dosed in triplicate with either compound or vehicle alone. Compounds were dosed at 300 mg/kg intraperitoneally using 75% DMSO as vehicle for delivery of 9 and phosphate-buffered saline (PBS) for delivery of 28. Mice were euthanized using a CO2 chamber after 16 hours exposure to either compound, and tissues (liver, lung, heart, kidney, spleen, pancreas, brain, blood, fat and muscle) harvested and flash frozen in liquid nitrogen. Frozen tissues were ground using a pestle and mortar, and resuspended in cell lysis buffer (50 mM NaH2PO4, 150 mM NaCl, 0.1% SDS, 1% NP-40, 0.25% sodium deoxycholate, 1 mM EDTA, 30 mM sodium fluoride, 30 mM β-glycerophosphate, 5 mM sodium pyrophosphate, 1 mM Thiamet-G, protease inhibitor cocktail (Roche)) at a concentration of 100 mg tissue1 mL buffer prior to homogenization. Homogenates were centrifuged at 13,000 rpm for 20 min, the supernatant removed, added to 2×SDS-PAGE loading buffer and boiled for […]. SDS-PAGE and western blots were performed using standard procedures. Blots were probed using anti-O-GlcNAc antibody (CTD110.6, Santa Cruz Biotechnology) and anti-actin antibody for a loading control.
# [3] = system: cell lines examined; assay: Qualitative observation of cell morphology and proliferation in treated cell lines; assay type: cell-based; details: at the doses assayed
# Experimental: Despite OGA levels continuing to drop and OGT levels rising over 5 days of dosing, O-GlcNAc levels remained low and unchanged after 24 hours (FIG. 2C).
# Cellular responses to Ac-5SGlcNAc (9) treatment and consequent decreases in O-GlcNAc levels were evaluated. […] We quantitatively evaluated cell proliferation and established growth curves over the course of 5 days in both CHO and EMEG32 heterozygous mouse embryonic fibroblast cells treated with 50 μM Ac-5SGlcNAc (9), 50 μM Ac-GlcNAc (G), or vehicle (FIGS. 5A-B).
# [4] = system: O-GlcNAc levels in primary CLL cells; assay: Western blot of O-GlcNAc levels in primary CLL cells; assay type: cell-based; details: 0-250 μM, 5 days
# Experimental: Primary CLL cells, obtained from Dr. David Spaner at the University of Toronto, were tested for their response to Ac-5SGlcNAc (9). Cells were plated at a confluency of 1 million cells/mL, and treated with between 0-250 μM 9, in the presence or absence of cytokine (1000 U/mL IL-2 and 1 μg/mL Resiquimod) stimulation to mimic cancer progression. Cells were observed over the course of 5 days, and harvested after this time into SDS-PAGE loading buffer before being subjected to western blotting.
structure (smiles),measurement,setting,value
"CC(=O)NC1C(OC(C)=O)SC(COC(C)=O)C(OC(C)=O)C1OC(C)=O [Compound 9, N-Acetyl-1,3,4,6-tetra-O-acetyl-α-D-5-thio-glucosamine]",O-GlcNAc modification of immunoprecipitated nup62,[1],shows almost no modification
same,O-GlcNAc levels in tissues,[2],"effective at decreasing O-GlcNAc levels during the 16 hour dosing period in the liver, lung, heart, kidney, spleen, pancreas, fat and muscle"
same,changes in cell morphology or rate of proliferation,[3],no apparent changes in cell morphology or rate of proliferation
same,O-GlcNAc levels,[4],O-GlcNAc levels were decreased in a dose-dependent fashion
